In paper PMC10998878, “Inhibition of acyl-CoA binding protein (ACBP) by means of a GABAARγ2-derived peptide” (Cell Death & Disease, 2024):
Entries after “also recorded” stand apart in the source; their conditions may differ.

Experiments:
[1] = tested on: GFP-LC3-expressing hepatocytes; assay: Hepatocyte autophagy activation (GFP-LC3 dots); assay type: cell-based; conditions: GFP-LC3 mouse hepatocytes, peptide 10 µg/mL, with leupeptin
Procedure: […] Leupeptin (100 μM) was added 4 h before fixation. Cells were stained with Hoechst 33342 solution (Thermo Scientific™, #62249, 1 µg/mL) and fixed with 4% paraformaldehyde (PFA) solution. Both blue (Hoechst-derived) and green (GFP-LC3-derived) fluorescence were imaged using a Zeiss LSM 710 confocal microscope. Images were analyzed using R software.
Hepatocytes were isolated from 4 transgenic mice expressing microtubule- associated proteins 1A/1B light chain 3B (hereafter referred to as LC3) fused to green fluorescent protein (GFP) (resulting fusion protein: LC3-GFP) under a ubiquitous promoter. Such oligo- or monocellular hepatocyte suspensions were cultured in the continuous presence of leupeptin at 37°C in the absence (A) or presence (B) of the GABAARγ2- EP- WT […]
Cells were counterstained with Hoechst
33342 and representative fluorescence images are shown (bar size: 10 µm). The number of LC3-GFP+ dots per cells (defined as an area of interest around the 1 or 2 Hoechst 33342- positive nuclei per cell) were determined by image analysis and plotted in C .
Results are shown as means ± standards of the mean, and statistics were calculated with […]

C57BL/6 mice = assay: Concanavalin A-induced acute liver injury; assay type: in vivo, mouse; conditions: C57BL/6 male mice, peptide 5 mg/kg i.v. 90 min before concanavalin A 12 mg/kg i.v.
Procedure: GABAARγ2 peptides (5 mg/kg, i.v., dissolved in DMSO) were injected in 12-week-old C57BL/6 male mice 90 min before the injection of 12 mg/kg Concanavalin A (ConA, i.v., Sigma Aldrich, # C5275).
Fig. 7 In vivo inhibition of ACBP/DBI function by the GABAARγ2-derived eicosapeptide. A, B Appetite stimulation by ACBP/DBI. RecACBP/DBI alone or combined with GABAARγ2-derived eicosapeptides (EP) (WT or F77I) was administered in vivo by intravenous (i.v.) injection and individual cumulative food intake was measured after 30 min. GABAARγ2 peptides are represented as blue stars, while murine RecACBP/DBI is represented as red circles (A). […] C, D Immunoblots and densitometric quantification of LC3 lipidation in liver tissues from mice treated with GABAARγ2-derived eicosapeptides (EP) WT with or without the autophagy flux inhibitor leupeptin (n = 5 mice per group). p values were calculated by unpaired one-tailed Student’s t-test. E–G Inhibition of concanavalin A hepatotoxicity. GABAARγ2 WT peptide (or negative vehicle) was i.v. injected to C57BL/6 male mice followed by concanavalin A (or negative vehicle) administration 1.5 h later (E). Alanine transaminase (ALT) (F) and aspartate transaminase (AST) (G) activity in plasma was analyzed by means of a colorimetric assay (n = 7–9 mice per condition). p values were calculated by unpaired one-tailed Student’s t-test. ns: non-significant. Unt: Untreated.

Huh-7 cells = assay: WST-8 conversion (metabolic activation) by Huh-7 cells; assay type: cell-based, human; conditions: RecACBP/DBI pre-incubated overnight with eicosapeptide, 4 h
Procedure: Media and cell culture supplements were purchased from Gibco-Invitrogen (Carlsbad, CA, USA). Plasticware was purchased from Corning B.V. Life Sciences (Schiphol-Rijk, The Netherlands). Unless reported otherwise, the cell line used in this study was cultured at standard conditions (37 °C, 5% CO2, Dulbecco’s modified Eagle’s medium containing 10% fetal bovine serum, 10 mM HEPES buffer, 100 mg/L sodium pyruvate, 100 U/mL penicillin G sodium, and 100 µg/mL streptomycin sulfate). 2-deoxy-D-glucose (# D8375) and rotenone (# R8875) were purchased from Sigma (Burlington, MA, USA). Human hepatocellular carcinoma (Huh-7) cell line was used for in vitro experiments. Cells were plated in 6- or 96-well plates and grown for 24 h before treatments.
WST-8 conversion assays were conducted utilizing the Cell Counting Kit-8 (Sigma-Aldrich, #96992). Cells were seeded in a 96-well plate at a density of 3000 cells per well and incubated overnight for adherence. Then, the culture medium was removed, and fresh medium containing the specified treatments was added to the wells. Immediately following the addition of treatments, 10 μL of CCK-8 reagent was introduced to each well. Subsequently, the cells were incubated for 4.5 h at 37 °C to facilitate the conversion of WST-8 in response to cellular activity. Following the incubation period, the absorbance at 450 nm was quantified using a VICTOR® Nivo™ microplate reader. This measurement served as an indicator of WST-8 conversion, reflecting cellular metabolic activity.
Fig. 6 Inhibition of the metabolic effects of ACBP/DBI on hepatocytes by the GABAARγ2-derived eicosapeptide. A WST-8 conversion by murine primary hepatocytes treated with increasing concentrations of recombinant ACBP/DBI protein (RecACBP/DBI) for 4 h. Hepatocytes were isolated from tamoxifen-induced Acbp/Dbi f/f or Acbp/Dbi KO full-body genetic background mice (white- or blue-colored graphs respectively). […] For statistical analysis p values are calculated by one-way ANOVA. B WST-8 conversion by control (shUNR) and ACBP/DBI-knocked down (shACBP/DBI) human Huh-7 cells treated with increasing concentrations of RecACBP/DBI for 4 h. shUNR and shACBP/DBI cells are represented by white- or blue-colored graphs respectively. […] C WST-8 conversion by Huh-7 cells treated with RecACBP/DBI or negative control (4 h). Cells were pre-treated with 2-deoxy-D-glucose (2-Deoxy-D-glu; 300 µM) or vehicle (2 h). […] D WST-8 conversion by Huh-7 cells treated with RecACBP/DBI or negative control (4 h). Cells were pre-treated with rotenone (0.5 µM) or vehicle (2 h). […] E WST-8 conversion by Huh-7 cells treated with RecACBP/DBI or negative control (4 h). Prior to administration, RecACBP/DBI was overnight pre-incubated with monoclonal antibody (α-ACBP/DBI) or isotype IgG1. […] F WST-8 conversion by Huh-7 cells treated with RecACBP/DBI or negative control (4 h). Prior to administration, RecACBP/DBI was overnight pre-incubated with GABAARγ2 (WT or F77I-mutated) eicosapeptides.

Sequence: INMEYTIDIFFAQTWYDRRL [GABAARγ2-EP-WT]
- capacity to enhance autophagic flux [1]: enhance autophagic flux
- number of LC3-GFP dots per cell ([1]; confocal microscopy): increased the number of LC3-GFP dots
- protection against concanavalin A hepatotoxicity, in words (C57BL/6 mice): attenuate acute hepatotoxicity induced by concanavalin A
- plasma alanine aminotransferase (ALT) after concanavalin A (C57BL/6 mice; n = 7–9): significantly blunted the surge
- plasma aspartate aminotransferase (AST) after concanavalin A (C57BL/6 mice; n = 7–9): significantly blunted the surge
- protection against concanavalin A hepatotoxicity, in words (C57BL/6 mice; listed as GABAARγ2-derived eicosapeptide): protected mice against the hepatotoxin concanavalin A
- inhibition of RecACBP/DBI-stimulated WST-8 conversion (eicosapeptides) (Huh-7 cells; n = 3): inhibited the ACBP/DBI-stimulated metabolic activation of Huh7 cells; also recorded: efficiently blocked the effects of recombinant human ACBP/DBI protein on human hepatocytes
- inhibition of RecACBP/DBI-stimulated WST-8 conversion (eicosapeptides) (Huh-7 cells; n = 3, listed as GABAARγ2-derived eicosapeptide): inhibited the metabolic activation of hepatocytes by recombinant ACBP/DBI protein in vitro
